ChEMBL document CHEMBL1144459, “Discovery of potent thiosemicarbazone inhibitors of rhodesain and cruzain” (Bioorg Med Chem Lett, 2005)

Key:
[1] = biological target: Cruzipain (Trypanosoma cruzi, UniProt P25779); experiment: Inhibitory concentration against cruzain of Trypanosoma cruzi
[2] = biological target: T1, Falcipain 2 (Plasmodium falciparum, UniProt Q9N6S8); experiment: Inhibitory concentration against falcipain-2 of Plasmodium falciparum W2
T1 sequence (Q9N6S8 whole entry): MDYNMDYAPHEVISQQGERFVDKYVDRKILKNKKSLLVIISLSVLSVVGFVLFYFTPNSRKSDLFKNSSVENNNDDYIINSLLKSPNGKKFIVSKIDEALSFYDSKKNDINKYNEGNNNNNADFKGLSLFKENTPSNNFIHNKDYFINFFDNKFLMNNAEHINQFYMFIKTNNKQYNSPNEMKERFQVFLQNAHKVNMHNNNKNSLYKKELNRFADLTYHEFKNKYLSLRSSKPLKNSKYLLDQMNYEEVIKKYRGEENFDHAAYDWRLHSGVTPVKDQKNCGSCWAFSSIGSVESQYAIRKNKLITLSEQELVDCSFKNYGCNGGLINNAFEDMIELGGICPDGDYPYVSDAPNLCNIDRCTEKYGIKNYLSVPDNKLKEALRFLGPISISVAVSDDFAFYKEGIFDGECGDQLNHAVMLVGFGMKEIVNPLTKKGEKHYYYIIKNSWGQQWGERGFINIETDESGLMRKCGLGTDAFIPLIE

[3] = biological target: Rhodesain (Trypanosoma brucei rhodesiense, UniProt Q95PM0); experiment: Inhibitory concentration against rhodesain of Trypanosoma brucei rhodesience
Rhodesain, sequence (Q95PM0 whole entry): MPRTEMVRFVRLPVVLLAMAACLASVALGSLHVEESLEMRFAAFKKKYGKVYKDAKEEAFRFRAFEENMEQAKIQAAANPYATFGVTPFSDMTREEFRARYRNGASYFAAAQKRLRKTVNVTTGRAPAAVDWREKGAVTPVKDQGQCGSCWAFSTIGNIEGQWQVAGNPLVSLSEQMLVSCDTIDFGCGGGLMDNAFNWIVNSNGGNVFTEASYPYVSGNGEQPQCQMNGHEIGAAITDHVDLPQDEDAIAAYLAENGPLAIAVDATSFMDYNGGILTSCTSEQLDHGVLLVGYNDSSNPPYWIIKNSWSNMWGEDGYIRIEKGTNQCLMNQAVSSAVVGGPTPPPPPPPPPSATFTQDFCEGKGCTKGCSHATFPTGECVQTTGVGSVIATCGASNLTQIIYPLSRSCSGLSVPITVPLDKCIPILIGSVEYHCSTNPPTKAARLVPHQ

[4] = system: Trypanosoma brucei rhodesiense; experiment: Effective dose to inhibit proliferation of Trypanosoma brucei rhodesiense in cell assay; type: functional; details: read-out: ED50 (the source's name)
[5] = system: Plasmodium falciparum; experiment: Effective dose against Plasmodium falciparum W2; type: functional; details: read-out: ED50 (the source's name)
[6] = system: Trypanosoma cruzi; experiment: Effective dose to inhibit proliferation of Trypanosoma cruzi in cell assay; type: functional; details: read-out: ED50 (the source's name)
[7] = system: Plasmodium falciparum; experiment: Effective dose against Plasmodium falciparum W2; Not active; type: functional; details: read-out: ED50 (the source's name)

Cruzipain, sequence (P25779 whole entry): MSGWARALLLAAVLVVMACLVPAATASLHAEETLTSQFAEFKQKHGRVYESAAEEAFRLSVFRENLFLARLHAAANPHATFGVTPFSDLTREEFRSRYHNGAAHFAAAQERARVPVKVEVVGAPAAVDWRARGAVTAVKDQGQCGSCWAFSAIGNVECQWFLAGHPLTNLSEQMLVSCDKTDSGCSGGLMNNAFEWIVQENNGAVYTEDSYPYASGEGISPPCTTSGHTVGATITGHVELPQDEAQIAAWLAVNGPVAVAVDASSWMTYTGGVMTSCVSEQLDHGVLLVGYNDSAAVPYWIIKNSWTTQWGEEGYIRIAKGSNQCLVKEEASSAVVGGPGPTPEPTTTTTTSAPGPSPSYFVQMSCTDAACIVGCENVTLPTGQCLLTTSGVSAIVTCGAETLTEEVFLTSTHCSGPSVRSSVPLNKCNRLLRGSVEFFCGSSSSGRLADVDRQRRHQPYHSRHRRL

Structure (SMILES)	IC50 [1] [nM]	IC50 [2] [nM]	IC50 [3] [nM]	EC50 [4] [nM]	EC50 [5] [nM]	EC50 [6] [nM]	EC50 [7] [nM]
N/C(S)=N/N=C(/c1ccc(Cl)c(Cl)c1)C1CCCCC1	3000	14000	1100				
N/C(S)=N/N=C(\CCc1ccccc1)c1ccc(Cl)c(Cl)c1	40	2600	90	69			
CC(C)(C)/C(=N\N=C(\N)S)c1ccc(Cl)c(Cl)c1	> 10000		3330				
Cc1ccc(/C(=N\N=C(\N)S)c2ccc(Cl)c(Cl)c2)cc1	40	1800	38				
N/C(S)=N/N=C(\Cc1ccccc1)c1ccc(Cl)c(Cl)c1	80	8400	80		19000		
CCCC/C(=N\NC(N)=S)c1ccc(Cl)c(Cl)c1	19	620	60	130		3000	
N/C(S)=N/N=C(/c1ccc(Cl)c(Cl)c1)C1CC1c1ccccc1 (configuration not stated)	30	640	60	570			
N/C(S)=N/N=C(\COc1ccccc1)c1ccc(Cl)c(Cl)c1	30	375	70	1500			
CC/C(=N\N=C(\N)S)c1ccc(Cl)c(Cl)c1	30		110				
CC/C(=N\NC(N)=S)c1cccc(Br)c1			230				
N/C(S)=N/N=C(\C=C\c1ccccc1)c1ccc(Cl)c(Cl)c1	30	470	38	72			9000
